# From patent US20190194179A1, “ANTIBIOTIC COMPOUNDS” (DISCUVA LTD., priority 2016, published 2019)
# Counter-ions that a name gives are not always drawn.
# Tested on: Neisseria gonorrhoeae
# Assay: EC50 determination: plate-based broth growth assay (absorbance at 600 nm) of Neisseria gonorrhoeae
# Type: cell-based
# Conditions: absorbance 600 nm after 20 hours at 37° C./5% CO2, read-out: IC50 (Inhibitory concentration) against Neisseria gonorrhoeae
# Outline: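 Mid-log culture diluted to ~10^5 cells/ml as inoculum and grown 20 hours at 37° C./5% CO2 across a 10-point compound dilution series. Growth read as absorbance at 600 nm; EC50 taken from transformed data as the concentration giving 50% response relative to no-compound controls.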
row,IC50 [nM],SMILES
1,≤ 10000,"Cc1nnc(Nc2nc3c(C)nccc3o2)o1 [Example 154, 4-Methyl-N-(5-methyl-1,3,4-oxadiazol-2-yl)oxazolo[4,5-c]pyridin-2-amine]"
2,≤ 1000,"Clc1ccc2nc(Nc3cocn3)oc2c1 [Example 221, 6-Chloro-N-(oxazol-4-yl)benzo[d]oxazol-2-amine]"
3,≤ 1000,"NC(=O)c1csc(Nc2nc3cc(Cl)ccc3o2)n1 [Example 99, 2-((5-Chlorobenzo[d]oxazol-2-yl)amino)thiazole-4-carboxamide]"
4,≤ 100000,"Clc1ccc2nc(Nc3cnoc3)oc2c1 [Example 225, 6-Chloro-N-(isoxazol-4-yl)benzo[d]oxazol-2-amine]"
5,≤ 1000,"Cc1nnc(Nc2nc3cc(Cl)ccc3[nH]2)o1 [Example 85, N-(5-Chloro-1H-benzo[d]imidazol-2-yl)-5-methyl-1,3,4-oxadiazol-2-amine]"
6,≤ 100,"Cc1nnc(Nc2nc3ccc(Cl)cc3o2)o1 [Example 109, 6-Chloro-N-(5-methyl-1,3,4-oxadiazol-2-yl)benzo[d]oxazol-2-amine]"
7,≤ 1000,"CN1CCC[C@@H]1c1nnc(Nc2nc3cc(C(F)(F)F)ccc3o2)o1 [Example 127, (R)-N-(5-(1-methylpyrrolidin-2-yl)-1,3,4-oxadiazol-2-yl)-5-(trifluoromethyl)benzo[d]oxazol-2-amine]"
8,≤ 100,"Cc1nnc(Nc2nc3cc(C(F)(F)F)c(Cl)cc3o2)[nH]1 [Example 125, 6-chloro-N-(5-methyl-4H-1,2,4-triazol-3-yl)-5-(trifluoromethyl)benzo[d]oxazol-2-amine]"
9,≤ 1000,"Clc1ccc2nc(Nc3nnc(CN4CCCC4)[nH]3)oc2c1 [Example 132, 6-Chloro-N-(5-(pyrrolidin-1-ylmethyl)-4H-1,2,4-triazol-3-yl)benzo[d]oxazol-2-amine]"
10,≤ 1000,"CCOC(=O)c1nnc(Nc2nc3cc(C(F)(F)F)ccc3n2C)o1 [Example 55, Ethyl 5-((1-methyl-5-(trifluoromethyl)-1H-benzo[d]imidazol-2-yl)amino)-1,3,4-oxadiazole-2-carboxylate]"
11,≤ 100,"Cc1nnc(Nc2nc3ccc(C(F)(F)F)cc3o2)o1 [Example 104, N-(5-Methyl-1,3,4-oxadiazol-2-yl)-6-(trifluoromethyl)benzo[d]oxazol-2-amine]"
12,≤ 1000,"CN(C)Cc1nnc(Nc2nc3cc(C(F)(F)F)ccc3o2)[nH]1 [Example 136, N-(5-((Dimethylamino)methyl)-4H-1,2,4-triazol-3-yl)-5-(trifluoromethyl)benzo[d]oxazol-2-amine]"
13,≤ 1000,"N#Cc1nnc(Nc2nc3ccc(F)cc3o2)o1 [Example 218, 5-((6-Fluorobenzo[d]oxazol-2-yl)amino)-1,3,4-oxadiazole-2-carbonitrile]"
14,≤ 1000,"O=C(c1nnc(Nc2nc3c(Cl)cc(Cl)cc3o2)o1)N1CCCC1 [Example 133, (5-((4,6-Dichlorobenzo[d]oxazol-2-yl)amino)-1,3,4-oxadiazol-2-yl)(pyrrolidin-1-yl)methanone]"
15,≤ 1000,"CN(C)Cc1nnc(Nc2nc3cc(C(F)(F)F)ccc3o2)o1 [Example 82, N-(5-((Dimethylamino)methyl)-1,3,4-oxadiazol-2-yl)-5-(trifluoromethyl)benzo[d]oxazol-2-amine]"
16,≤ 10000,"Clc1cnc2nc(Nc3nnco3)oc2c1 [Example 220, 6-Chloro-N-(1,3,4-oxadiazol-2-yl)oxazolo[4,5-b]pyridin-2-amine]"
17,≤ 1000,"Cc1nnc(Nc2nc3cccc(Cl)c3o2)o1 [Example 39, 7-Chloro-N-(5-methyl-1,3,4-oxadiazol-2-yl)benzo[d]oxazol-2-amine]"
18,≤ 10000,"O=C(O)c1csc(Nc2nc3cc(Cl)ccc3o2)n1 [Example 96, 2-((5-Chlorobenzo[d]oxazol-2-yl)amino)thiazole-4-carboxylic acid]"

row,IC50 [nM],SMILES
1,≤ 100000,"CC(=O)N(C)c1ccc2nc(Nc3nnco3)oc2c1 [Example 215, N-(2-((1,3,4-Oxadiazol-2-yl)amino)benz-o[d]oxazol-6-yl)-N-methylacetamide]"
2,≤ 1000,"Cc1nnc(Nc2nc3c(C)cc(Cl)cc3o2)[nH]1 [Example 141, 6-Chloro-4-methyl-N-(5-methyl-4H-1,2,4-triazol-3-yl)benzo[d]oxazol-2-amine]"
3,≤ 1000,"c1nnc(Nc2nc3ccc(N4CCCC4)cc3o2)o1 [Example 183, N-(1,3,4-oxadiazol-2-yl)-6-(pyrrolidin-1-yl)benzo[d]ox-azol-2-amine]"
4,≤ 10000,"Cn1ccc(Nc2nc3cc(C(F)(F)F)ccc3o2)n1 [Example 38, N-(1-Methyl-1H-pyrazol-3-yl)-5-(trifluoromethyl)benzo[d]oxazol-2-amine]"
5,≤ 1000,"Clc1cccc2oc(Nc3nnco3)nc12 [Example 120, 4-Chloro-N-(1,3,4-oxadiazol-2-yl)benzo[d]oxazol-2-amine]"
6,≤ 100,"COc1cc2oc(Nc3nnco3)nc2cc1Cl [Example 190, 5-Chloro-6-methoxy-N-(1,3,4-oxadiazol-2-yl)benzo[d]ox-azol-2-amine]"
7,≤ 100,"Clc1ccc2oc(Nc3nnco3)nc2c1 [Example 135, 5-Chloro-N-(1,3,4-oxadiazol-2-yl)benzo[d]oxazol-2-amine]"
8,≤ 1000,"FC(F)(F)c1cc2oc(Nc3nc4ccccc4[nH]3)nc2cn1 [Example 166, N-(1H-Benzo[d]imidazol-2-yl)-6-(trifluoromethyl) oxazolo[4,5-c]pyridin-2-amine]"
9,≤ 1000,"Cc1nnc(Nc2nc3c(F)cccc3o2)[nH]1 [Example 124, 4-Fluoro-N-(5-methyl-4H-1,2,4-triazol-3-yl)benzo[d]oxazol-2-amine]"
10,≤ 1000,"Clc1ccc2nc(Nc3nncs3)oc2c1 [Example 151, 6-Chloro-N-(1,3,4-thiadiazol-2-yl)benzo[d]oxazol-2-amine]"
11,≤ 1000,"COCCn1c(C)nnc1Nc1nc2cc(C(F)(F)F)c(Cl)cc2o1 [Example 142, 6-Chloro-N-(4-(2-methoxyethyl)-5-methyl-4H-1,2,4-triazol-3-yl)-5-(trifluoromethyl)benzo[d]oxazol-2-amine]"
12,≤ 1000,"Cc1nccc2oc(Nc3nc4ccccc4o3)nc12 [Example 171, N-(Benzo[d]oxazol-2-yl)-4-methyloxazolo[4,5-c]pyridin-2-amine]"
13,≤ 100000,"Clc1ccc2nc(Nc3ncno3)oc2c1 [Example 224, 6-chloro-N-(1,2,4-oxadiazol-5-yl)benzo[d]oxazol-2-amine]"
14,≤ 100,"Brc1ccc2nc(Nc3nnco3)oc2c1 [Example 179, 6-Bromo-N-(1,3,4-oxadiazol-2-yl)benzo[d]ox-azol-2-amine]"
15,≤ 1000,"Cc1nnc(Nc2nc3cc(C(F)(F)F)ccc3[nH]2)s1 [Example 86, 5-Methyl-N-(5-(trifluoromethyl)-1H-benzo[d]imidazol-2-yl)-1,3,4-thiadiazol-2-amine]"
16,≤ 1000,"CC1CCN(Cc2nnc(Nc3nc4cc(C(F)(F)F)ccc4o3)o2)C1 (stereo not drawn) [Example 78, N-(5-((3-methylpyrrolidin-1-yl)methyl)-1,3,4-oxadiazol-2-yl)-5-(trifluoromethyl)benzo[d]oxazol-2-amine]"
17,≤ 1000,"Clc1ccc2nc(Nc3ccsn3)oc2c1 [Example 222, 6-Chloro-N-(isothiazol-3-yl)benzo[d]oxazol-2-amine]"

row,SMILES,IC50 [nM]
1,"FC(F)(F)c1ccc2oc(Nc3nnc(C4CCNCC4)o3)nc2c1 [Example 145, N-(5-(Piperidin-4-yl)-1,3,4-oxadiazol-2-yl)-5-(trifluoromethyl)benzo[d]oxazol-2-amine hydrochloride]",≤ 100000
